Data from patent US10940475B2, “Gradient-on-a-chip” (Purdue Research Foundation, priority 2017, dated 2021).
Like-named read-outs stand apart in the source and are kept apart here.

Key:
S2 cells [1] = details: four hours
Experimental: (§1) A NE-4000X dual syringe pump (New era pump systems Inc., Farmingdale, N.Y.) was exposed to UV overnight before the day of experiments. The flow rate was adjusted to 0.1 ml/h, and using a 60 ml syringe a continuous inflow of medium and H2O2 (250 μM) through the inlets was maintained. The second pump was connected to the outlet to remove the medium at 0.2 ml/h to avoid overflow of liquids in the cell culture aperture of the device. The flow rate for the outlet pump was twice that of the incoming flow rate to accommodate for the use of two inlets. The paper strip with cells in 2D or 3D culture was placed in the cell culture slot of the device and exposed to the ROS gradient for four hours.

S2 cells [2] = details: four hours; remark: listed apart in the source
Experimental: as §1
Nuclear circularity and nuclear area were measured using the ImageJ software by outlining the nuclear shape based on DAPI staining. The most circular nuclei are given a score of 1 (perfectly round nucleus). Nuclear area was measured in pixels and converted to μm^2 based on the spatial calibration table of ImageJ.

S2 cells [3] = details: for cells with γ-H2Ax staining: low ROS concentration tier, gradient from 250 μM H2O2, four hours
Experimental: Human mammary epithelial non-neoplastic S1 cells^17 [used between passages 52 to 60], preinvasive S2 cells^18 [used between passages 218+2 and 218+10] and invasive T4-2 cells^19 [used between passages 28+4 and 28+10] that belong to the HMT-3522 breast cancer progression series, were cultured in H-14 medium, i.e., Dulbecco modified Eagle medium (DMEM) (Invitrogen Inc., Carlsbad, Calif.) supplemented with additives, prolactin (30.3 IU/ml; Sigma-Aldrich, St Louis, Mo.), insulin (100 μg/ml; Sigma-Aldrich), hydrocortisone (0.5 mg/ml; BD Biosciences, San Jose, Calif.), beta-estradiol (2.67×10^−5 μg/ml; Sigma-Aldrich), selenium (2.6 μg/ml; BD Biosciences) and transferrin (20 mg/ml; Sigma-Aldrich)^20. The culture medium also included epithelial growth factor (EGF) (20 mg/ml; BD Biosciences) until day 6 of culture, after which EGF was omitted from the culture medium to ensure proliferation arrest in 3D culture. Cell culture was performed at 37° C. in a humidified environment with 5% carbon dioxide and the culture medium was changed every three days for the S1 cells and every two days for S2 and T4-2 cells. Seeding densities in 2D culture were 22600 cells/cm^2 for S1 cells and 11900 cells/cm^2 for S2 and T4-2 cells. In 3D culture seeding densities were 86300 cells/cm^2 for S1 cells in the presence of Engelbreth-Holm-S warm (EHS) mouse derived Matrigel (Corning Life Sciences, Tewksbury, Ma.) or within collagen-1 rich Collymer matrix (GeniPhys™, Zionsville, Ind.) and 43150 cells/cm^2 for S2 and T4-2 cells. […] Briefly, 42 μl of Matrigel per cm^2 was used for the drip method with cells in 150 μl of medium, dripped on the gel-coated surface, before adding another 150 μl of medium with 10% EHS gel drop-by-drop all over the culture surface five minutes later (in the end seeding involved 3.47×10^4S1 cells/cm^2 per 55 μl of Matrigel; 1.74×10^4S2 or T4-2 cells/cm^2 per 55 μl of Matrigel). Collymers were prepared at different degrees of stiffness based on the formula provided by the manufacturer. S1 cells were cultured in 800 Pa Collymers stiffness, S2 cells were cultured in 800 Pa and 1500 Pa Collymers stiffness and T4-2 cells were cultured in 1500 Collymers stiffness. For the S2 cells, since they are preinvasive and nodules are surrounded by a basement membrane, basement membrane formation inducer laminin 111 (Corning) was mixed at 76 μg/ml final concentration with Collymers. For the Collymers thin-embedded culture, the surface was coated with 14 μl/cm^2 of Collymers of the desired stiffness. Collymers become opaque when they form a gel by incubation five minutes at 37° C. Cells were mixed with Collymers at the following concentrations per surface of culture and Collymers volume units: 4500 cells/cm^2/μl for S1 cells and 2262 cells/cm^2/μl for S2 and T4-2 cells. Following centrifugation at 2950 g for five minutes, the cells needed for each culture surface were put in solution in 5 μl of H-14 medium. Then, the cell suspension was mixed with Collymers (55 μl/cm^2 of culture surface) by gentle pipetting before coating on the cell culture surface, drop-by-drop all over the surface, and spreading with the pipette tip to ensure even distribution over the culture surface. After incubation five minutes at 37° C., 500 μl medium was added on top of the Collymers-embedded cells.
Antibodies used included Anti-rabbit Caspase-3 (Cell Signaling Technologies, Boston, Mass. 1/400 dilution), AOP2 (Abcam, Cambridge, Mass.; 2 μg/ml) and γ-H2AX (Ser139; Millipore, clone JBW301, 3.3 μg/ml). […]

OO [ROS, hydrogen peroxide]
oxidative DNA damage based on 8-OHdG expression (S2 cells [1]; low ROS concentration tier, 2D and 3D Matrigel culture): did no show oxidative DNA damage
8-OHdG levels (S2 cells [1]; medium and high ROS concentration tiers, 2D cell culture and 3D Matrigel cell culture): significant, but similar increase
AOP2 response (nodules stained for AOP2) (S2 cells [1]; regardless of the ROS levels): ~100%
nuclear area (S2 cells [2]; ROS exposure regardless of the cell culture condition): increased
nuclear circularity (S2 cells [2]; with increasing ROS concentration tiers, all culture conditions): decreased
γ-H2AX response level of the cell population (S2 cells [3]; high concentration tier, all culture conditions, four hours): around 40%
cells with γ-H2Ax staining (S2 cells [3]; 800 Pa Collymers): 20%
cells with γ-H2Ax staining (S2 cells [3]; 1500 Pa Collymers culture): less than 5%
cells with γ-H2Ax staining (S2 cells [3]; Matrigel culture): less than 5%
cells with γ-H2Ax staining (S2 cells [3]; cells cultured on paper (2D)): 20%
